Results: PubChem BioAssay (NCI)
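All cell lines were grown in 96-well plates and treated with compound for 48 hours. At the GI50, growth is halved. At the TGI there is no net growth.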

Legend:
Experiment in all cases: DTP human tumour cell line panel, 48 h
PC-3 prostate = tested on: PC-3 prostate
K-562 leukemia = tested on: K-562 leukemia
SF-539 CNS = tested on: SF-539 CNS
EKVX NSCLC = tested on: EKVX NSCLC
SK-OV-3 ovarian = tested on: SK-OV-3 ovarian
MOLT-4 leukemia = tested on: MOLT-4 leukemia
OVCAR-8 ovarian = tested on: OVCAR-8 ovarian
SR leukemia = tested on: SR leukemia

Compound	TGI (PC-3 prostate) [µM]	TGI (K-562 leukemia) [µM]	TGI (SF-539 CNS) [µM]	TGI (EKVX NSCLC) [µM]	TGI (SK-OV-3 ovarian) [µM]	TGI (MOLT-4 leukemia) [µM]	TGI (OVCAR-8 ovarian) [µM]	TGI (SR leukemia) [µM]	GI50 (PC-3 prostate) [µM]	GI50 (K-562 leukemia) [µM]	GI50 (SF-539 CNS) [µM]	GI50 (EKVX NSCLC) [µM]	GI50 (SK-OV-3 ovarian) [µM]	GI50 (MOLT-4 leukemia) [µM]	GI50 (OVCAR-8 ovarian) [µM]
Cc1cc(Cc2c(F)c(F)c(Cc3cc(C)no3)c(F)c2F)on1	> 100	> 100	> 100	> 100	> 100	> 100	> 100								
O=C(Nn1c(-c2ccccc2)nc2ccccc2c1=O)c1ccccn1	> 100	> 100	> 100	> 100	> 100	> 100	> 100	> 100							
OCC1OC(n2cnc3cccnc32)CC1O (centres undefined)	> 100	> 100	> 100	> 100		> 100	> 100	> 100							
N#Cc1c(NC(=O)c2ccccc2)sc2c1CCC(=O)C2	13.3	> 100	2.59	10.4	14.7	> 100	45		0.385	0.467	0.78	2.33	2.33	1.2	1.27
NC(N)=N/N=C/c1c(-c2ccc([N+](=O)[O-])cc2)nc2sccn12	2.93	2.84	3.34	3.44	3.35										
CC(CCC(=O)O)[C@H]1CCC2[C@H]3C(CC[C@@]21C)[C@@]1(C)CCC(O)C[C@H]1C[C@@H]3O (some centres undefined)	> 100	> 100	> 100	> 100		> 100	> 100	> 100							
Cc1cc(C)c(S(=O)(=O)N(CCCCN)OCCCN)c(C)c1	27.6	44.4	41.6	31	31.8	28.6	32.8	38							
C=CCC(CNC(=O)OCc1ccccc1)O[Si](C)(C)C(C)(C)C (centres undefined)	> 100	> 100	93.2	74.9	> 100	70.1	> 100	46.4							
Cc1cc(S(=O)(=O)Nc2nnc3c(C(F)(F)F)cc(Cl)cn23)c(S)cc1Cl	> 100	> 100	> 100	> 100	> 100	> 100	> 100	> 100							
O=C(O)C(CCc1ccccn1)c1ccccc1 (centres undefined)	> 100	> 100	> 100	> 100	> 100	> 100	> 100	> 100							
O=C(c1ccc2ccccc2c1)C1S(=O)(=O)OCCOS1(=O)=O	> 100	> 100		> 100		> 100	> 100	> 100							
CC(C)CCC[C@@H](C)[C@H]1CC[C@H]2[C@@H]3CC=C4C[C@@H](OC(=O)c5cccc6c(=O)c7ccccc7[nH]c56)CC[C@]4(C)[C@H]3CC[C@]12C	> 75	> 75	> 75	> 75	> 75	> 75	> 75	> 75							
CC[C@]12C=CCN3CCC4(c5cc(N=Nc6ccccc6)c(OC)cc5N(C)[C@H]4[C@@](O)(C(=O)OC)[C@@H]1OC(C)=O)[C@@H]32 (some centres undefined)	29.8	64.2	48.3	34.2		34.6	42.2	45.5							
O=C(C1=C(C(=O)c2ccccc2)SC2(S1)C(C(=O)c1ccccc1)=C(C(=O)c1ccccc1)Sc1c2ssc1=O)c1ccccc1	> 100	> 100	57.6	> 100	> 100	> 100	> 100	> 100							
CC(=O)N(CN1C(=O)CCC1C(=O)O)c1ccccc1 (centres undefined)	> 100	> 100	> 100	> 100	> 100	> 100	> 100	> 100							
CC(=O)NC1C(CO)O[C@@H]2OC(C)(C)O[C@H]12 (some centres undefined)	> 100		> 100	> 100		> 100	> 100								
CCCCC[C@@H]1OCO[C@@]2(C)/C=C(C)/C=C/C(=O)O[C@H]([C@@H](C)[C@@H](O)[C@H](C)[C@@]3(O)C[C@@H](O[C@H]4C[C@@H](O)[C@H](O)[C@@H](C)O4)[C@H](C)[C@@H](C)O3)[C@@H](OC)/C=C/C=C(\C)C[C@@H]1[C@@H]2O (stereo in doubt)	1.64	7.54	3.23	3.07	5.38	0.809	7.38	< 0.005							
CN=C(Nn1cnnc1)OC	> 100	> 100		> 100	> 100	> 100	> 100	> 100							
O=C(c1ccccc1)c1c(C(F)(F)F)n([O-])c2ccccc2[n+]1=O	2.27		5.77	6.04		0.516	3.3	0.413							
c1ccc(CCN2CCCCCC2)nc1	> 100	> 100		> 100	> 100	> 100	> 100								
COC(=O)c1sc(=S)sc1SCc1ccccc1CSc1sc(=S)sc1C(=O)OC	> 100	> 100		> 100	> 100	> 100	> 100								
CCOC(=O)c1nc2c3c(ncn2n1)Oc1c(c(-c2ccccc2)nn1-c1ccccc1)C3c1ccc(Cl)cc1 (centres undefined)	> 100	> 100	> 100		> 100		> 100	> 100							
CNC(=O)CCC(NC(C)=O)C(=O)NC(Cc1ccc(NC(=O)CCCCC(C)=O)cc1)C(=O)NC(CCC(=O)NC)C(=O)NC (centres undefined)	> 100	> 100	> 100	> 100	> 100	> 100	> 100								
N#Cc1c(Nc2ccc(F)cc2)[n+]([O-])c2ccc(Cl)cc2[n+]1[O-]	> 100	8.56	7.31		36.7	9.09	> 100								
COc1cc2cc(C(=O)N3CC(CCl)c4c3cc(N)c3ccccc43)[nH]c2cc1OCCN(C)C (centres undefined)	5.5	1.12		10.7	0.881	17.4	0.0571								
CCOC(=O)c1cc2c(OC(C)=O)ccc(OC(C)=O)c2s1	5.07		3.36	7.73	22.7	> 24	3.51	> 22.7							
Clc1nc(-[n+]2ccc(-c3ccncc3)cc2)nc(Nc2ccccc2)c1Cl	> 100	> 100	> 100	> 100	> 100	> 100		77.4							
